Experimental data published in patent publication US12492173B2, “Herbicidal substituted N-tetrazolyl aryl carboxamides” (Bayer Aktiengesellschaft, priority 2019, dated 2025).

Key:
Type in all cases: in vivo
[1] = tested on: Abutilon theophrasti; experiment: Pre-emergence herbicidal action, ABUTH; set-up: key to Herbicidal action against ABUTH: % activity: 100 = plants have died, 0 = like control plants
Outline: (§1)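 Visual scoring after 3 weeks in the greenhouse, relative to untreated pots, gave percent activity, where 100% means dead plants and 0% equals controls. Treatment was a pre-emergence soil-surface spray of WP or EC formulations in water (600 to 800 l/ha, 0.2% wetting agent) over seeds covered in sandy loam.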

[2] = tested on: Amaranthus retroflexus; experiment: Pre-emergence herbicidal action, AMARE; set-up: key to Herbicidal action against AMARE: % activity: 100 = plants have died, 0 = like control plants; details: for Herbicidal action against AMARE: comparative experiment, 20 g of a.i./ha
Outline: as §1

[3] = tested on: Cyperus esculentus; experiment: Pre-emergence herbicidal action, CYPES; set-up: key: % activity: 100 = plants have died, 0 = like control plants; details: comparative experiment, 20 g of a.i./ha
Description: (§2) 1. Pre-Emergence Herbicidal Action Against Harmful Plants Seeds of monocotyledonous and dicotyledonous weed plants and crop plants are laid out in sandy loam soil in wood-fiber pots and covered with soil. The compounds of the invention, formulated in the form of wettable powders (WP) or as emulsion concentrates (EC), are then applied to the surface of the covering soil in the form of an aqueous suspension or emulsion at a water application rate equating to 600 to 800 l/ha, with addition of 0.2% wetting agent. After the treatment, the pots are placed in a greenhouse and kept under good growth conditions for the trial plants. The damage to the test plants is scored visually after a test period of 3 weeks by comparison with untreated controls (herbicidal activity in percent (%): 100% activity=the plants have died, 0% activity=like control plants). […] The tables below illustrate, in an exemplary manner, the […] herbicidal action of the compounds according to the invention, the herbicidal activity being stated in percent. [table] In the experiments that follow, herbicidal action of numerous inventive compounds and the known compounds that are structurally closest from D1 (WO 2012/028579 A1) and D2 (WO 2018/202535 A1) were compared under the above-specified conditions by the pre-emergence and post-emergence method. The example numbers given in the tables relate to the compounds disclosed in the respective documents. In addition to the compounds disclosed in D1 and D2, the following compounds V-1 to V-14 that are encompassed by D1 or D2 but are not compounds specified therein were used in the comparative experiments: • V-1: 2-(methylsulfanyl)-3-(methylsulfinyl)-N-(1-methyl-1H-tetrazol-5-yl)-4-(trifluoromethyl)benzamide • V-2: 2-(methylsulfanyl)-3-(methylsulfonyl)-N-(1-methyl-1H-tetrazol-5-yl)-4-(trifluoromethyl)benzamide • V-3: 2,3-bis(ethylsulfanyl)-N-(1-methyl-1H-tetrazol-5-yl)-4-(trifluoromethyl)benzamide • V-4: 2-chloro-3-(ethylsulfanyl)-N-(1-methyl-1H-tetrazol-5-yl)-4-(trifluoromethyl)benzamide • V-5: 2-chloro-4-iodo-3-(methylsulfanyl)-N-(1-methyl-1H-tetrazol-5-yl)benzamide • V-6: 2-chloro-4-iodo-3-(methylsulfinyl)-N-(1-methyl-1H-tetrazol-5-yl)benzamide • V-7: 2-chloro-4-iodo-3-(methylsulfonyl)-N-(1-methyl-1H-tetrazol-5-yl)benzamide • V-8: 2-bromo-3-(methylsulfanyl)-N-(1-methyl-1H-tetrazol-5-yl)-4-(trifluoromethyl)benzamide • V-9: 2-bromo-3-(methylsulfinyl)-N-(1-methyl-1H-tetrazol-5-yl)-4-(trifluoromethyl)benzamide • V-10: 2-bromo-3-(methylsulfonyl)-N-(1-methyl-1H-tetrazol-5-yl)-4-(trifluoromethyl)benzamide • V-11: 2-bromo-3-(ethylsulfanyl)-N-(1-methyl-1H-tetrazol-5-yl)-4-(trifluoromethyl)benzamide • V-12: 2-bromo-3-(ethylsulfinyl)-N-(1-methyl-1H-tetrazol-5-yl)-4-(trifluoromethyl)benzamide • V-13: 2-bromo-3-(ethylsulfonyl)-N-(1-methyl-1-1H-tetrazol-5-yl)-4-(trifluoromethyl)benzamide • V-14: 2-cyclopropyl-3-(ethylsulfanyl)-N-(1-methyl-1H-tetrazol-5-yl)-4-(trifluoromethyl)benzamide Herbicidal Pre-Emergence Action: […]

[4] = tested on: Echinochloa crus-galli; experiment: Pre-emergence herbicidal action, ECHCG; set-up: key to Herbicidal action against ECHCG: % activity: 100 = plants have died, 0 = like control plants; details: for pest or weed control at 20 g/ha: Echinochloa crus-galli, 504 h, read-out: Herbicidal action against ECHCG
Outline: as §1

[5] = tested on: Hordeum murinum; experiment: Pre-emergence herbicidal action, HORMU; details: dosage 320 g/ha, scored visually after 3 weeks vs untreated controls (100% = plants have died)
Description: as §2

[6] = tested on: Matricaria inodora; experiment: Pre-emergence herbicidal action, MATIN; set-up: key to Herbicidal action against MATIN: % activity: 100 = plants have died, 0 = like control plants; details: for Herbicidal action against MATIN: comparative experiment, 20 g of a.i./ha
Outline: as §1

[7] = tested on: Pharbitis purpurea; experiment: Pre-emergence herbicidal action, PHBPU; details: dosage 320 g/ha, scored visually after 3 weeks vs untreated controls (100% = plants have died)
Description: as §2

[8] = tested on: Polygonum convolvulus; experiment: Pre-emergence herbicidal action, POLCO
Outline: as §1

[9] = tested on: Setaria viridis; experiment: Pre-emergence herbicidal action, SETVI; set-up: key to Herbicidal action against SETVI: % activity: 100 = plants have died, 0 = like control plants; details: for Herbicidal action against SETVI: comparative experiment, 20 g of a.i./ha
Outline: as §1

[10] = tested on: Stellaria media; experiment: Pre-emergence herbicidal action, STEME; set-up: key to Herbicidal action against STEME: % activity: 100 = plants have died, 0 = like control plants; details: for Herbicidal action against STEME: comparative experiment, 20 g of a.i./ha
Outline: as §1

[11] = tested on: Veronica persica; experiment: Pre-emergence herbicidal action, VERPE; set-up: key to Herbicidal action against VERPE: % activity: 100 = plants have died, 0 = like control plants; details: for Herbicidal action against VERPE: comparative experiment, 20 g of a.i./ha
Outline: as §1

[12] = tested on: Viola tricolor; experiment: Pre-emergence herbicidal action, VIOTR; set-up: key to Herbicidal action against VIOTR: % activity: 100 = plants have died, 0 = like control plants
Outline: as §1

[13] = tested on: Polygonum convolvulus; experiment: Post-emergence herbicidal action, POLCO; details: comparative experiment, post-emergence, 5 g of a.i./ha
Outline: (§3)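 Greenhouse post-emergence test: weeds sown in sandy loam were sprayed once at one leaf, 2 to 3 weeks from sowing, with aqueous WP or EC preparations carrying 0.2% wetting agent. Effect is scored visually after about 3 weeks.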

[14] = tested on: Alopecurus myosuroides; experiment: Post-emergence herbicidal action, ALOMY; set-up: key: % herbicidal action vs untreated; 100 = plants died, 0 = like control; details: comparative experiment, post-emergence, 5 g of a.i./ha
Method: (§4) [table] 2. Post-Emergence Herbicidal Action Against Harmful Plants Seeds of monocotyledonous and dicotyledonous weed and crop plants are laid out in sandy loam soil in wood-fiber pots, covered with soil and cultivated in a greenhouse under good growth conditions. 2 to 3 weeks after sowing, the test plants are treated at the one-leaf stage. The compounds of the invention, formulated in the form of wettable powders (WP) or as emulsion concentrates (EC), are then sprayed onto the green parts of the plants in the form of an aqueous suspension or emulsion at a water application rate equating to 600 to 800 l/ha, with addition of 0.2% wetting agent. After the test plants have been left to stand in the greenhouse under optimal growth conditions for about 3 weeks, the action of the preparations is assessed visually in comparison to untreated controls (herbicidal action in percent (%): 100% activity=the plants have died, 0% activity=like control plants). […] The tables below illustrate, in an exemplary manner, the post-emergence herbicidal action of the compounds according to the invention, the herbicidal activity being stated in percent. In the experiments that follow, herbicidal action of numerous inventive compounds and the known compounds that are structurally closest from D1 (WO 2012/028579 A1) and D2 (WO 2018/202535 A1) were compared under the above-specified conditions by the pre-emergence and post-emergence method. The example numbers given in the tables relate to the compounds disclosed in the respective documents. In addition to the compounds disclosed in D1 and D2, the following compounds V-1 to V-14 that are encompassed by D1 or D2 but are not compounds specified therein were used in the comparative experiments: • V-1: 2-(methylsulfanyl)-3-(methylsulfinyl)-N-(1-methyl-1H-tetrazol-5-yl)-4-(trifluoromethyl)benzamide • V-2: 2-(methylsulfanyl)-3-(methylsulfonyl)-N-(1-methyl-1H-tetrazol-5-yl)-4-(trifluoromethyl)benzamide • V-3: 2,3-bis(ethylsulfanyl)-N-(1-methyl-1H-tetrazol-5-yl)-4-(trifluoromethyl)benzamide • V-4: 2-chloro-3-(ethylsulfanyl)-N-(1-methyl-1H-tetrazol-5-yl)-4-(trifluoromethyl)benzamide • V-5: 2-chloro-4-iodo-3-(methylsulfanyl)-N-(1-methyl-1H-tetrazol-5-yl)benzamide • V-6: 2-chloro-4-iodo-3-(methylsulfinyl)-N-(1-methyl-1H-tetrazol-5-yl)benzamide • V-7: 2-chloro-4-iodo-3-(methylsulfonyl)-N-(1-methyl-1H-tetrazol-5-yl)benzamide • V-8: 2-bromo-3-(methylsulfanyl)-N-(1-methyl-1H-tetrazol-5-yl)-4-(trifluoromethyl)benzamide • V-9: 2-bromo-3-(methylsulfinyl)-N-(1-methyl-1H-tetrazol-5-yl)-4-(trifluoromethyl)benzamide • V-10: 2-bromo-3-(methylsulfonyl)-N-(1-methyl-1H-tetrazol-5-yl)-4-(trifluoromethyl)benzamide • V-11: 2-bromo-3-(ethylsulfanyl)-N-(1-methyl-1H-tetrazol-5-yl)-4-(trifluoromethyl)benzamide • V-12: 2-bromo-3-(ethylsulfinyl)-N-(1-methyl-1H-tetrazol-5-yl)-4-(trifluoromethyl)benzamide • V-13: 2-bromo-3-(ethylsulfonyl)-N-(1-methyl-1-1H-tetrazol-5-yl)-4-(trifluoromethyl)benzamide • V-14: 2-cyclopropyl-3-(ethylsulfanyl)-N-(1-methyl-1H-tetrazol-5-yl)-4-(trifluoromethyl)benzamide Herbicidal Pre-Emergence Action: […]

[15] = tested on: Amaranthus retroflexus; experiment: Post-emergence herbicidal action, AMARE; set-up: key: % herbicidal action vs untreated; 100 = plants died, 0 = like control; details: comparative experiment, post-emergence, 5 g of a.i./ha
Outline: as §3

[16] = tested on: Cyperus esculentus; experiment: Post-emergence herbicidal action, CYPES; set-up: key: % herbicidal action vs untreated; 100 = plants died, 0 = like control; details: comparative experiment, post-emergence, 5 g of a.i./ha
Method: as §4

[17] = tested on: Stellaria media; experiment: Post-emergence herbicidal action, STEME; set-up: key: % herbicidal action vs untreated; 100 = plants died, 0 = like control; details: comparative experiment, post-emergence, 5 g of a.i./ha
Outline: as §3

[18] = tested on: Alopecurus myosuroides; experiment: Pre-emergence herbicidal action, ALOMY; set-up: key: % activity: 100 = plants have died, 0 = like control plants; details: comparative experiment, 20 g of a.i./ha
Description: as §2

[19] = dosage 320 g/ha, scored visually after 3 weeks vs untreated controls (100% = plants have died)
[20] = comparative experiment, 20 g of a.i./ha

Q: `CSc1c(C(=O)Nc2nnnn2C)ccc(C(F)(F)F)c1CS(C)(=O)=O` [Example 1-163] was tested. Which “herbicidal activity ABUTH” value [1, 19] did it give?
A: 100%

Q: And the “herbicidal activity AMARE” value [2, 19]?
A: 100%

Q: And the “Herbicidal action against CYPES” value [3]?
A: 70

Q: What about the “Herbicidal action against ECHCG” value [4, 20] of the same compound?
A: 90

Q: What about the “herbicidal activity ECHCG” value [4, 19] of the same compound?
A: 100%

Q: What about the “herbicidal activity HORMU” value [5] of the same compound?
A: 90%

Q: What about the “herbicidal activity MATIN” value [6, 19] of the same compound?
A: 100%

Q: And the “herbicidal activity PHBPU” value [7]?
A: 80%

Q: And the “Herbicidal action against POLCO” value [8, 20]?
A: 70

Q: What about the “herbicidal activity POLCO” value [8, 19] of the same compound?
A: 100%

Q: What about the “herbicidal activity SETVI” value [9, 19] of the same compound?
A: 100%

Q: And the “herbicidal activity STEME” value [10, 19]?
A: 100%

Q: And the “herbicidal activity VERPE” value [11, 19]?
A: 100%

Q: What about the “herbicidal activity VIOTR” value [12, 19] of the same compound?
A: 100%

Q: And the “Herbicidal action against POLCO” value [13]?
A: 70

Q: For `CSc1c(I)ccc(C(=O)Nc2nnnn2C)c1Cl` [Example V-5, 2-chloro-4-iodo-3-(methylsulfanyl)-N-(1-methyl-1H-tetrazol-5-yl)benzamide, reference compound], which “Herbicidal action against AMARE” value [2] is on record?
A: 70

Q: And the “Herbicidal action against CYPES” value [3]?
A: 0

Q: And the pest or weed control at 20 g/ha [4, 20]?
A: 0%

Q: What about the “Herbicidal action against MATIN” value [6] of the same compound?
A: 20

Q: And the “Herbicidal action against SETVI” value [9]?
A: 0

Q: And the “Herbicidal action against STEME” value [10]?
A: 0

Q: What about the “Herbicidal action against VERPE” value [11] of the same compound?
A: 0

Q: What about the “Herbicidal action against ALOMY” value [14] of the same compound?
A: 40

Q: What about the “Herbicidal action against AMARE” value [15] of the same compound?
A: 70

Q: And the “Herbicidal action against CYPES” value [16]?
A: 10

Q: And the “Herbicidal action against STEME” value [17]?
A: 10

Q: For `Cn1nnnc1NC(=O)c1ccc(I)c([S+](C)[O-])c1Cl` (stereo not drawn) [Example V-6, 2-chloro-4-iodo-3-(methylsulfinyl)-N-(1-methyl-1H-tetrazol-5-yl)benzamide, reference compound], which “Herbicidal action against ABUTH” value [1, 20] is on record?
A: 40

Q: And the “Herbicidal action against ALOMY” value [18]?
A: 30

Q: What about the “Herbicidal action against AMARE” value [2] of the same compound?
A: 50

Q: And the “Herbicidal action against MATIN” value [6]?
A: 60

Q: And the “Herbicidal action against SETVI” value [9]?
A: 60

Q: What about the “Herbicidal action against STEME” value [10] of the same compound?
A: 0

Q: How did the “Herbicidal action against ALOMY” value [18] turn out when `Cn1nnnc1NC(=O)c1ccc(C(F)(F)F)c([S+](C)[O-])c1Br` (stereo not drawn) [Example V-9, 2-bromo-3-(methylsulfinyl)-N-(1-methyl-1H-tetrazol-5-yl)-4-(trifluoromethyl)benzamide, reference compound] was run?
A: 20

Q: What about the pest or weed control at 20 g/ha [4, 20] of the same compound?
A: 60%

Q: And the “Herbicidal action against SETVI” value [9]?
A: 40

Q: And the “Herbicidal action against STEME” value [10]?
A: 60

Q: What about the “Herbicidal action against VIOTR” value [12, 20] of the same compound?
A: 70

Q: How did the “Herbicidal action against ALOMY” value [18] turn out when `Cn1nnnc1NC(=O)c1ccc(C(F)(F)F)c(S(C)(=O)=O)c1Br` [Example V-10, 2-bromo-3-(methylsulfonyl)-N-(1-methyl-1H-tetrazol-5-yl)-4-(trifluoromethyl)benzamide, reference compound] was run?
A: 10

Q: What about the “Herbicidal action against VERPE” value [11] of the same compound?
A: 60
